The record followed here is ChEMBL document CHEMBL1201862, “PubChem BioAssay data set” (2004).

Calls of active or inactive are those of the source.

Data set [1] is described as follows: Luminescence Cell-Based Dose Retest to Confirm Inhibitors of Cancer Stem Cells. [Related pubchem assays (depositor defined):AID2717, AID2721]. Type of data set: functional, Homo sapiens. The conditions noted are these: Homo sapiens.
Data set [2] in a line: cytotoxicity in HMLE control line with eGFP shRNA, dose response, counter-screen for HMLE_sh_ECad selective toxicity project, cell-based, HMLE_sh_eGFP, luminescence (AID 463074).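 Further: HMLE human mammary epithelial cells expressing control shRNA against eGFP.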 Type of data set: functional, Homo sapiens. Background: A counterscreen serves to expose hits that act by an unwanted route or on another target.
The nature of data set [3]: NIH-3T3 fibroblast cytotoxicity, dose response, cytotoxicity control, cell-based, fluorescence, Alamar Blue, secondary assay (AID 2327).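 Further: NIH-3T3 mouse fibroblasts cultured with fluconazole at 8 µg/mL.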 It is filed as functional.
Data set [4] in a line: C. albicans growth with fluconazole, confirmation, fluorescence, retest (AID 2467). Type of data set: functional, cell-based.
Data set [5] in a line: THP-1 cell cytotoxicity, dose response, cytotoxicity control for non-replicating M. tuberculosis project (AID 489025). It is filed as functional.
A short description of data set [6]: HepG2 cell cytotoxicity, dose response, cytotoxicity control for non-replicating M. tuberculosis project (AID 489018). It is filed as functional. The conditions noted are these: Mycobacterium tuberculosis.
Data set [7] can be described thus: Vero E6 cell cytotoxicity, dose response, cytotoxicity control for non-replicating M. tuberculosis project, secondary assay (AID 492998). Type of data set: functional, VeroE6. The note with it: Vero C1008.
Data set [8] can be described thus: cells. It is filed as functional.
For data set [9], the system named is HEK293. Description: cytotoxicity in HEK293T NF-kB-Luc cells, SAR follow-up, cytotoxicity control for NF-kB activator project, cell-based, resazurin fluorescence (AID 493251). It is filed as functional. The conditions noted are these: Homo sapiens. For orientation: Alamar Blue is a resazurin reagent that responds to reducing activity.
Data set [10] relates to Jurkat. Description: SAR Analysis of small molecule inhibitors of T-cell specific antigen receptor-induced NF-kB activation in a Jurkat cell line using a luminescence assay - Set 2. [Related pubchem assays (depositor defined):AID435003, AID435012, AID465]. Type of data set: functional, cell-based. The note with it: Homo sapiens.
For data set [11], the system named is HEK293. Description: SAR Analysis of small molecule inhibitors of T-cell specific antigen receptor-induced NF-kB activation in a HEK-293T cell line using a luminescence assay - Set 2. [Related pubchem assays (depositor defined):AID435003, AID435012, AID489026]. It is filed as functional, cell-based. The conditions noted are these: Homo sapiens.
Data set [12] can be described thus: Luminescence Cell-Based/Microorganism Confirmation at Dose of Inhibitors of Trypanosoma cruzi Infection. [Related pubchem assays: 1885, 1968 ]. It is filed as functional.
The nature of data set [13]: inhibitors of intracellular T. cruzi replication, confirmation, NIH3T3 host cells, beta-gal luminescence (AID 2044).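 Further: intracellular parasites grown in NIH/3T3 mouse fibroblasts as host cells; luminescent beta-galactosidase reporter signal from transgenic T. cruzi replicating inside host cells; inhibitors lower the luminescence signal.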 Type of data set: functional, cell-based.
A short description of data set [14]: cytotoxicity toward NIH3T3 fibroblasts, dose response, counter-screen, cell-based, ATP luminescence, mouse fibroblasts (AID 2010).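 Further: cells exposed to compound for about 90 hours before reading.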 It is filed as functional.
The nature of data set [15]: inhibitors of Trypanosoma cruzi host-cell infection, confirmation, beta-gal luminescence, NIH3T3 host cells (AID 2630). Type of data set: functional, cell-based. The note with it: Mus musculus.
The target in data set [16] is Cytochrome P450 3A4 (Homo sapiens, UniProt P08684).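 Further: CYP3A4 tested as one member of a cytochrome P450 panel screen.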
Sequence of Cytochrome P450 3A4 (P08684 whole entry): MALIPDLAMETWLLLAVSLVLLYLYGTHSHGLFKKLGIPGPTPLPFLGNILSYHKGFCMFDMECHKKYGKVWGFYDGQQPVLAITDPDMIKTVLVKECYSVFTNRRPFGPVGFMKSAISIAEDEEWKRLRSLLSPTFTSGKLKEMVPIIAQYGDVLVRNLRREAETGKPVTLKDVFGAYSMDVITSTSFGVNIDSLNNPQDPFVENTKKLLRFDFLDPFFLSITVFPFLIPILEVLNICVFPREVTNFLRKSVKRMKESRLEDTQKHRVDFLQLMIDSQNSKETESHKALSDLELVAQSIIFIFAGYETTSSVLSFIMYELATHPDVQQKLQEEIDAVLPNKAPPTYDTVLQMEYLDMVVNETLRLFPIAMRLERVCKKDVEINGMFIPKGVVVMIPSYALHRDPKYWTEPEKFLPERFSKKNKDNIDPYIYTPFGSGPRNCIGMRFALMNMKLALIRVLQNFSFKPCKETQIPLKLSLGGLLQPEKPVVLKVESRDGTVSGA
Data set [17] has as its target T1, Cytochrome P450 1A2 (Homo sapiens, UniProt P05177).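 Further: PubChem cytochrome P450 panel assay, CYP1A2 panel member.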
T1 sequence (P05177 whole entry): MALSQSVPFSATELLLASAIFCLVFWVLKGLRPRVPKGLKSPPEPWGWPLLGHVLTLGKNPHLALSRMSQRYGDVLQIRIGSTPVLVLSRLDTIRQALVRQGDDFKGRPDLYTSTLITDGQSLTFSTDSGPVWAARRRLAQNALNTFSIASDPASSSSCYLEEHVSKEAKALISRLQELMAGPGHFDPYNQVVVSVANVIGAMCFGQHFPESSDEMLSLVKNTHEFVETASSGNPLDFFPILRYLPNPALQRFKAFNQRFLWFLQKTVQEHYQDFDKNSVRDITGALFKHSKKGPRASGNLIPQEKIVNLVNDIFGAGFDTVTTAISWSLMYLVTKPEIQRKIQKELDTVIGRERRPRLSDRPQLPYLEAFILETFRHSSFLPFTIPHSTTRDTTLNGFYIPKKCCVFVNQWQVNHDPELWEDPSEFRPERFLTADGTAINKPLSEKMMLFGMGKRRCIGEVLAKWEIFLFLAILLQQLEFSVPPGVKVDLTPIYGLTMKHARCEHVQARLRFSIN

The test system of data set [18] is Streptococcus sp. 'group A'. The data set is described as follows: growth inhibition of control SK(-) GAS strain, dose response, counter-screen for streptokinase expression inhibitor project, luminescence, kanamycin, BacTiterGlo, confirmation (AID 1900). Type of data set: functional, organism-based. The note with it: read-out: EC50.
Data set [19] concerns the target Large T antigen (Simian virus 40, UniProt P03070). It is filed as functional, Betapolyomavirus macacae.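 Further: Confirmatory-stage PubChem screen for compounds that inhibit SV40 T antigen.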
In data set [20] the test system is Streptococcus. Description: Group A Streptococcus viability loss, dose response, counter-screen for streptokinase expression inhibitor project, luminescence, BacTiterGlo (AID 1915).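 Further: potency for reduction of bacterial viability or growth.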 It is filed as functional, organism-based.
In data set [21] the target is Glucose-6-phosphate 1-dehydrogenase (Homo sapiens, UniProt P11413). Description: human G6PD enzyme inhibitors, dose response, selectivity assay for P. falciparum G6PD inhibitor project, biochemical, fluorescence (AID 504792). Type of data set: functional.
Sequence of Glucose-6-phosphate 1-dehydrogenase (P11413 whole entry, the tested form may be a part): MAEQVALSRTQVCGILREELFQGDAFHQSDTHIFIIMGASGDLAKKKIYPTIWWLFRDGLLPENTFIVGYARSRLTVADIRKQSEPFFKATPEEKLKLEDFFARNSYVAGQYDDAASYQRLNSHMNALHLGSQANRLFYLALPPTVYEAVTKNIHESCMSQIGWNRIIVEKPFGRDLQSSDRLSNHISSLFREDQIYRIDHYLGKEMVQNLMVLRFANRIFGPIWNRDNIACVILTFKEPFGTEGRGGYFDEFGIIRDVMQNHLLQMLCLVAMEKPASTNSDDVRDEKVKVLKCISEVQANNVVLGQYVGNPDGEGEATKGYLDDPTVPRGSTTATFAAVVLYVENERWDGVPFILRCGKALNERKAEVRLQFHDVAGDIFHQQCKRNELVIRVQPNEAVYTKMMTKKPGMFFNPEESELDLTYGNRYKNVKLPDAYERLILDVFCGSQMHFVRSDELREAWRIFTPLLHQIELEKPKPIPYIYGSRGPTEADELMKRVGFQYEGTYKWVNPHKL
Data set [22] addresses 1-acylglycerol-3-phosphate O-acyltransferase ABHD5/Perilipin-5 (Homo sapiens, UniProt Q00G26+Q8WTS1). The data set is described as follows: Luminescence-based biochemical high throughput dose response assay for inhibitors of the interaction of the lipase co-activator protein, abhydrolase domain containing 5 (ABHD5) with perilipin-5 (MLDP; PLIN5) (2K validation set). [Related pubchem assays (depositor defined):AID493035, AID493241].

Data set [23] deals with Perilipin-1/ABHD5 (Homo sapiens, UniProt O60240+Q8WTS1). The data set is described as follows: Luminescence-based biochemical high throughput dose response assay for inhibitors of the interaction of the lipase co-activator protein, abhydrolase domain containing 5 (ABHD5) with perilipin-1 (PLIN1) (2K validation set). [Related pubchem assays (depositor defined):AID493027, AID493057].
Sequence of Perilipin-1/ABHD5 (Q8WTS1 whole entry, the tested form may be a part): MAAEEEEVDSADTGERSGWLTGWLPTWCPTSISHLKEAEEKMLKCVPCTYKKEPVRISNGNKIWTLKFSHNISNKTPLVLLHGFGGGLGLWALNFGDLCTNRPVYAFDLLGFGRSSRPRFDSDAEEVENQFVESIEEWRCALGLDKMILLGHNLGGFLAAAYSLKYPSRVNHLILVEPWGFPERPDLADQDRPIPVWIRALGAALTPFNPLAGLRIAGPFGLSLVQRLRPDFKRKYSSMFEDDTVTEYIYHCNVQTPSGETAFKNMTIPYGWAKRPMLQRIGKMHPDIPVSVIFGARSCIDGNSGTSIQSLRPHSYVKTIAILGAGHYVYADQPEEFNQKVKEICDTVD
Sequence of Perilipin-1/ABHD5 (O60240 whole entry, the tested form may be a part): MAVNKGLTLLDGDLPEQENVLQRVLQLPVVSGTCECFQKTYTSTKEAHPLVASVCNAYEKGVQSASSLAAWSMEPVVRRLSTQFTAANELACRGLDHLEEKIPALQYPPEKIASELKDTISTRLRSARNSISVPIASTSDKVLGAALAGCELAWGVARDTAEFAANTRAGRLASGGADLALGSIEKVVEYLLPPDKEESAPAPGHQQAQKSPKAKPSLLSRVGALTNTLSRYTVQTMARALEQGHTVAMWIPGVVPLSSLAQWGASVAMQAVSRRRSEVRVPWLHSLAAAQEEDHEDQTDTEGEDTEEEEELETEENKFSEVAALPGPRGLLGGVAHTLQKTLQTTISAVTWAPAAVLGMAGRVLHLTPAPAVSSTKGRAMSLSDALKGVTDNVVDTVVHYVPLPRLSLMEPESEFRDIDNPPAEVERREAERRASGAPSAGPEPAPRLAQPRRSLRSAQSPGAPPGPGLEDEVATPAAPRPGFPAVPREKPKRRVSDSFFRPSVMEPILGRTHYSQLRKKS

Data set [24] deals with Phosphoethanolamine/phosphocholine phosphatase (Homo sapiens, UniProt Q8TCT1). The data set is described as follows: SAR assay for compounds that inhibit PHOSPHO1. [Related pubchem assays (depositor defined):AID1545, AID1565, AID1574].
Sequence of Phosphoethanolamine/phosphocholine phosphatase (Q8TCT1 whole entry): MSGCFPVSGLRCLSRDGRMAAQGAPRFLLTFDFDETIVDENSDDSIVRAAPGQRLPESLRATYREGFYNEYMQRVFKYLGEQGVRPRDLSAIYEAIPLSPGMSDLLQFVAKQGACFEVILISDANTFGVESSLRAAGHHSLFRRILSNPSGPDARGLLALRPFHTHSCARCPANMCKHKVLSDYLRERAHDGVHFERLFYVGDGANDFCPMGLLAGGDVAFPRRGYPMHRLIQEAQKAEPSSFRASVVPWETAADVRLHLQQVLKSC
Data set [25] has as its target T2, Hexokinase HKDC1 (Homo sapiens, UniProt Q2TB90).
T2 sequence (Q2TB90 whole entry): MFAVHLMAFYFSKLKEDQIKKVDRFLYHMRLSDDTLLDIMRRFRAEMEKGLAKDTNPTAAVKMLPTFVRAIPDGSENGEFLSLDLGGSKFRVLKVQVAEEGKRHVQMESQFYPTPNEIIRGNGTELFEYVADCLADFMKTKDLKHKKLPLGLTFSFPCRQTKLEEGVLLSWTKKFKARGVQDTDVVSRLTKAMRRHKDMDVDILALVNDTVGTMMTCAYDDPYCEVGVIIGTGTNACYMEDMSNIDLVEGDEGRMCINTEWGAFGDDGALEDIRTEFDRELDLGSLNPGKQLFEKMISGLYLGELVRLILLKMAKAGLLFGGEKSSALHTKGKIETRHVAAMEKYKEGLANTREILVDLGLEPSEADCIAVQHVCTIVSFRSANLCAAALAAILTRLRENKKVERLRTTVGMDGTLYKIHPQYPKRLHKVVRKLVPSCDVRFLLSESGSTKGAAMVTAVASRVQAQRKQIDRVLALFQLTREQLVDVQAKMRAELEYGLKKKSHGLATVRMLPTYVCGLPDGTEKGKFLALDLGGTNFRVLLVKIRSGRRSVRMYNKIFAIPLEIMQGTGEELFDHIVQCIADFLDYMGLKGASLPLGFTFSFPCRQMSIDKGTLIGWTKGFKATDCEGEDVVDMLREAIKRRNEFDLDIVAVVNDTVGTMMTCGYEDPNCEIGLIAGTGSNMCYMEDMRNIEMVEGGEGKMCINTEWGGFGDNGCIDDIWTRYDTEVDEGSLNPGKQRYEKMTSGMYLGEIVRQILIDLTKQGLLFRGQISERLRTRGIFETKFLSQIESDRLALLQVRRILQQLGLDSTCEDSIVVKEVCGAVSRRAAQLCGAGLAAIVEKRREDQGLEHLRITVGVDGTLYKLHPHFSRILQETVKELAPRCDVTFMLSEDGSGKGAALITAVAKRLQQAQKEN
Description: HKDC1 hexokinase activators, dose response, biochemical, W721R variant (AID 504730). It is filed as functional.

Data set [26] deals with Eukaryotic translation initiation factor 4E (Mus musculus, UniProt P63073). Description: eIF4E–eIF4G protein interaction inhibitors, dose response, biochemical, TR-FRET (AID 855).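 Further: potency for disrupting eIF4E binding to eIF4GI seen as loss of FRET.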 It is filed as functional. Background: TR-FRET usually uses a lanthanide donor and a delayed reading to cut background.
Sequence of Eukaryotic translation initiation factor 4E (P63073 whole entry): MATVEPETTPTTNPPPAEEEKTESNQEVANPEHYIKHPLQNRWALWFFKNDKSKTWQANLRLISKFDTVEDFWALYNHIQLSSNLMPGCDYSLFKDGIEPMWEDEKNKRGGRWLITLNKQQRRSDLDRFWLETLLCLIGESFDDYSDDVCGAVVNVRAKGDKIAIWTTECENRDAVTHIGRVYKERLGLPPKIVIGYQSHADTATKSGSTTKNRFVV
Data set [27] has as its target T3, Hexokinase-1 (Homo sapiens, UniProt P19367).
T3 sequence (P19367 whole entry): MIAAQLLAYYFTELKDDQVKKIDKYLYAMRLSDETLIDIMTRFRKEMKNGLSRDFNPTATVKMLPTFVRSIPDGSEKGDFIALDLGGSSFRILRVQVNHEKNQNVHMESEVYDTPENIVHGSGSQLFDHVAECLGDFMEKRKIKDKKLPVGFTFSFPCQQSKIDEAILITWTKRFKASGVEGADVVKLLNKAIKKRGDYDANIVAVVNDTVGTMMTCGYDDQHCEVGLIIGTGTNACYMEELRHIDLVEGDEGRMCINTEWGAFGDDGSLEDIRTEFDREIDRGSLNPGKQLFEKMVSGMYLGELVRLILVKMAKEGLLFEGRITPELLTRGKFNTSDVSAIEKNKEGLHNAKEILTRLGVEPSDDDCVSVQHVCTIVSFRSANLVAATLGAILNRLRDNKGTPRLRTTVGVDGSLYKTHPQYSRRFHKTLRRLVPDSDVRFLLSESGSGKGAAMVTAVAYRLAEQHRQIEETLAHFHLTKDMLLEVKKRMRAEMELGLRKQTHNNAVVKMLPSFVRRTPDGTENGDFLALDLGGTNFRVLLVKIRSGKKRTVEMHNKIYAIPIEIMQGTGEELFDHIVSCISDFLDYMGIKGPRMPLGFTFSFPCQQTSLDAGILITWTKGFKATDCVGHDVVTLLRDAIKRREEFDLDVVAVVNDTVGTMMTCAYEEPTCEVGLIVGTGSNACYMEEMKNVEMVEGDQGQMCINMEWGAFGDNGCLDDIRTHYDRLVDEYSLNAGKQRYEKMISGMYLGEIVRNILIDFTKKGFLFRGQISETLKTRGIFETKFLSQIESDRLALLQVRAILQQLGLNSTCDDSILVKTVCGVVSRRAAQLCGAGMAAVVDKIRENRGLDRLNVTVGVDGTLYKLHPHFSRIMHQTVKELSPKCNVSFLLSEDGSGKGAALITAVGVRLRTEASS
Description: hexokinase 1 activators, dose response, selectivity assay for HKDC1 activator project, biochemical (AID 504762). Type of data set: functional.

The target in data set [28] is Beta-arrestin-1 (Homo sapiens, UniProt P49407). Description: inhibitors of arrestin peptide binding to AP2, dose response, biochemical, cherry pick 1, beta2-adaptin appendage, flow cytometry (AID 588783). Type of data set: functional.
Sequence of Beta-arrestin-1 (P49407 whole entry): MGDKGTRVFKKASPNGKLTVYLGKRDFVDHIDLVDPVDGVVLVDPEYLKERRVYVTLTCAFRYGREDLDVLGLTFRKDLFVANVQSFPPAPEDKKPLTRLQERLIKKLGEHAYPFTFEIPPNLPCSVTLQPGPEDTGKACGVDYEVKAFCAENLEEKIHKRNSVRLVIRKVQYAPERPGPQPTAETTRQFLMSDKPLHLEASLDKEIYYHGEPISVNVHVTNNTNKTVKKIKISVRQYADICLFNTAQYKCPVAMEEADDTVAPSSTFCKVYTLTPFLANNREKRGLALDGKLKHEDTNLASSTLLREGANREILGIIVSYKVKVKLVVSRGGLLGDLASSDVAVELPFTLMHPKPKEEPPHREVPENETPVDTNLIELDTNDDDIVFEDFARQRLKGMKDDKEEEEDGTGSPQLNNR
Data set [29] has as its target Voltage-gated inwardly rectifying potassium channel KCNH2 (Homo sapiens, UniProt Q12809). The note with it: Potency.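 Further: confirmatory quantitative high-throughput screen measuring inhibition of hERG channel activity.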

Sequence of 1-acylglycerol-3-phosphate O-acyltransferase ABHD5/Perilipin-5 (Q00G26 whole entry, the tested form may be a part): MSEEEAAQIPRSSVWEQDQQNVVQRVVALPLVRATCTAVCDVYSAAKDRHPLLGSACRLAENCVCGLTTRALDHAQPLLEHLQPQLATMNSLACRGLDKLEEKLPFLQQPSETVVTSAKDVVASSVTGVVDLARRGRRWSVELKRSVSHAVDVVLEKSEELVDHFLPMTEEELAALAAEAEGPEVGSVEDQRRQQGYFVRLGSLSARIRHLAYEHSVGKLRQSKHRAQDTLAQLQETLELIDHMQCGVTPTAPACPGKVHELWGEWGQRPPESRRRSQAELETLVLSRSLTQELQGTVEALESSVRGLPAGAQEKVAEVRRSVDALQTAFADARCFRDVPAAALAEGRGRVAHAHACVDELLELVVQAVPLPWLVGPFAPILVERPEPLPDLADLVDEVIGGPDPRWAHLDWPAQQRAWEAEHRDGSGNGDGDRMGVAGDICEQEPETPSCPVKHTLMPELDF
Sequence of 1-acylglycerol-3-phosphate O-acyltransferase ABHD5/Perilipin-5 (Q8WTS1 whole entry, the tested form may be a part): as the sequence (Q8WTS1 whole entry, the tested form may be a part) above
Sequence of Large T antigen (P03070 whole entry): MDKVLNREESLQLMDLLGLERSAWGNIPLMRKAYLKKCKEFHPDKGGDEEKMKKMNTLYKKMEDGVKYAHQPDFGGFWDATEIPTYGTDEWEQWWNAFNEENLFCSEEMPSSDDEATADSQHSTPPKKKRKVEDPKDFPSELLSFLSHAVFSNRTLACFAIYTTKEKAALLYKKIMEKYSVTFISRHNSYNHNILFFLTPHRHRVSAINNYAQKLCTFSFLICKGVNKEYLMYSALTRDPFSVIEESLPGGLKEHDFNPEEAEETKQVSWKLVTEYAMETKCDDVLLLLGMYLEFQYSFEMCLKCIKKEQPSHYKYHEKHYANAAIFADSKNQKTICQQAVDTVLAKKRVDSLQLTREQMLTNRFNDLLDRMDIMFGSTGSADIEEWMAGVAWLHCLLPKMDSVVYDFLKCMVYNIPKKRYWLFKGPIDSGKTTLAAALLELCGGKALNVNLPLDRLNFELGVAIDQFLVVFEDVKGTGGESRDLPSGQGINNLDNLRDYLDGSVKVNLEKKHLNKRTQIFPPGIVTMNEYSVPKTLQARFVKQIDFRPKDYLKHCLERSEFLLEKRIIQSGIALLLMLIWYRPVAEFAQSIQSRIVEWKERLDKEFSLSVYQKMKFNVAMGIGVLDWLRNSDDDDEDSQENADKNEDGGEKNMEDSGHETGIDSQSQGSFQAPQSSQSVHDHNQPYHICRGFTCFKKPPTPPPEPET

As to `CCC(C(=O)Nc1cc(OC)c(NC(=O)c2ccccc2)cc1OC)c1ccccc1` (centres undefined), the concentration at half-maximal activity (AC50) in [1] is 4.24 µM (active); in data set [2] it was 51.9 µM (active).
Turning to `Cc1ccc(NC(=O)c2ccc([N+](=O)[O-])o2)cc1C`, the figures for the EC50 in [3] and in data set [4] were 14.2 µM (active) and 1.87 µM (active), respectively. Besides, the results for the CC50 in [5], in data set [6] and in data set [7] were 16.2 µM (active), 15.1 µM (active) and 6.87 µM (active), respectively. Also, the 50% inhibitory concentration (IC50) in [8] is 0.7 µM (active); in [9], 47.3 µM (inactive); in data set [10], 6.86 µM (active); in data set [11] it was 38.6 µM (inactive).
With `CC1CCCN(C(=O)Cc2cn(Cc3cccc(Cl)c3)c3ccccc23)C1` (centres undefined), the EC50 in data set [12] is 2.81 µM (active); in data set [13], 1.79 µM (active); in data set [14], > 60 µM (not active); in data set [15], 2.81 µM (active).
As for `O=C(c1ccc2c(c1)N(Cc1ccc(F)cc1)C(=O)CS2)N1CCOCC1`, the AC50 was 25.1 µM (inconclusive) in data set [16] and “inconclusive” in data set [17].
For `O=c1c2ccccc2[se]n1-c1ccccc1` [EBSELEN], the EC50 in data set [18] is 1.1 µM (active); in [20], 0.975 µM (active); in data set [25], 38.8 µM (inactive); in [27], 41.9 µM (inactive). Moreover, the IC50 in data set [19] was 13.9 µM (active); in [21], 13.2 µM (active); in data set [22], 1.1 µM (active); in data set [23], 3.41 µM (active); in data set [24] it was 0.111 µM (active); in data set [26], 1.15 µM (active). Further, the IC50 in [28] was 1.52 µM (active). Besides, the concentration at half-maximal activity (AC50) in data set [29] was 35.5 µM (inconclusive).

One may read the AC50 as the concentration giving half of the maximal activity seen. The EC50 is the concentration needed to bring the measured effect to its halfway point. As a reminder, the CC50 is the concentration at which the toxic effect on the cells reaches its halfway point. The term IC50 denotes the concentration that gives 50% inhibition.
